Experimental findings from patent US11840527B2, “Non-fused thiophene derivatives and their uses” (ENYO PHARMA, priority 2018, dated 2023) are described below.

In experiment [1] the test system is H1N1 (influenza A/New Caledonia/20/99). Briefly: Antiviral effect on A549 cells infected with H1N1. The experiment is classed as cell-based, H1N1 A/New Caledonia/20/99 virus. As to conditions: Influenza A virus, MOI 0.1, 48 h post-infection, MUNANA neuraminidase readout. Summed up: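 A549 cells dosed with test compounds over a concentration range and infected at once with clinical isolate H1N1 A/New Caledonia/20/99 (MOI 0.1) in DMEM with […] TPCK trypsin, 37 °C. At 48 h, supernatant neuraminidase activity measured with MUNANA substrate (1 h, 37 °C); 4-MU fluorescence at ex 365/em 450 nm.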

The target of experiment [2] is T1, CISD1 Gene Product (mitoNEET) (Homo sapiens, UniProt Q9NZ45).
T1 sequence (Q9NZ45 33-108 limits assumed): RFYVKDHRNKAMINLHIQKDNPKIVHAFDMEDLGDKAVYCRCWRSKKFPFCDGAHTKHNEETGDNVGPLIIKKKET
Kind of experiment: Stability of Fe-S cluster binding of purified NEET protein (absorbance 458 nm). The experiment is classed as biochemical. The procedure:
(§1) The modulator effect on the NEET proteins encoded by human CISD1, CISD2, and CISD3 genes by the compounds of the invention has been tested and is reported below. Particularly, the biochemical function of the NEET proteins is measured by the stability of Fe—S cluster binding of the purified NEET proteins.
(§2) The Fe—S cluster binding capacity of NEET proteins is known to be coordinated by four amino-acids in a stretch of 16 (three Cysteine and one Histidine). As the lability of the Fe—S cluster of NEET proteins is sensitive to the environment, cluster stability measurements are one of the measures of interactions of NEET proteins with small molecules and compounds. NEET protein/2Fe-2S cluster stability can be assessed by monitoring the decay in absorbance of its characteristic 458-nm peak (characteristic of the oxidized 2Fe-2S cluster) over time. Each NEET protein (mitoNEET, NAF-1 and Miner 2) was tested for its Fe—S binding in the absence or presence of a compound according to the invention (see table 3 below). The rate of cluster release (time in minutes to achieve 50% loss of bound Fe—S cluster) was compared for each NEET protein in the presence of one of the compounds of the invention (in a 1:3 protein:compound molar ratio) relative to each protein alone.
(§3) At pH 6, all the three NEET proteins (mitoNEET, NAF-1 and Miner 2) have a characteristic rate of loss of the bound Fe—S cluster that can be measured by the decrease of absorbance at wavelength 458 nm over time, using a spectrophotometer. Thus, Bis-Tris buffer (100 mM Bis-Tris pH6, 100 mM Nacl) was used at pH 6 to dilute either DMSO (Blank sample: Bis-Tris Buffer pH 6, 66 μM DMSO), DMSO and one of the three NEET proteins (Control sample: Bis-Tris Buffer pH 6, 66 μM DMSO, 20 μM purified NEET protein) or DMSO, one of the three NEET proteins and a compound of the invention (Test sample: Bis-Tris Buffer pH 6, 66 μM DMSO, 20 μM purified NEET protein, 60 μM compound of the invention).
(§4) A reaction mix containing DMSO diluted in the Bis-Tris Buffer with or without a compound of the invention was prepared. The purified NEET protein was the last component added to the reaction mix which was then aliquoted into 4 replicates in 96 wells plates. The absorbance at wavelength 458 nm was taken at 5 minutes intervals at 37° C. with a spectrofluorimeter. The assay run time for CISD2 gene product (NAF-1) was 500 minutes and 180 minutes for both the CISD 1 gene product (mitoNEET) and the CISD3 gene product (Miner 2).
(§5) In addition to time monitoring, residual bound Fe—S cluster to NEET protein was measured at the final point of the spectrometry assay for each Test sample and compared to the Control sample data (in parenthesis table 3). This residual binding is measured by the differential percentage between the absorbance 458 nm at time zero and the absorbance 458 nm at the end of the experiment (i.e. respectively 500 or 180 minutes as described hereabove), showing the percentage of NEET protein still able to bind Fe—S cluster.
(§6) Analysis of the absorbance enables the time for which 50% loss of bound Fe—S cluster is reached (i.e. a 50% absorbance decrease at 458 nm) for each Test sample and each Control sample (in parenthesis table 3) to be determined. The data are then compared to determine whether the compound of the invention stabilizes or destabilizes the NEET protein/Fe—S cluster binding.
(§7) Stabilisers of Fe—S cluster binding by the NEET proteins slow the release of bound Fe—S (i.e. increase the time needed to reach 50% Fe—S cluster bound loss by more than 25% for the Test sample compared to the Control sample). As illustrated by table 3, at the concentrations tested, stabilisers of CISD1 Gene Product (mitoNEET) are the compounds #9, #18, #26, #2, #1, and #42. Stabilisers of CISD2 Gene Product (NAF-1) are the compounds #2, #1, and #40. Stabilisers of CISD3 Gene Product (Miner2) are the compounds #9, #18, #26, #2, #1, and #42.

Experiment [3] deals with T2, CISD3 Gene Product (Miner2) (Homo sapiens, UniProt P0C7P0).
T2 sequence (P0C7P0 15-127): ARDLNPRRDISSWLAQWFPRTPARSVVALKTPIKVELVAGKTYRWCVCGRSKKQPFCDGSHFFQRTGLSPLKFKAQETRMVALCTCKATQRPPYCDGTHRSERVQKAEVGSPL
The description is as above. In kind it is biochemical. How it is done:
as §1, §2, §3, §4, §5, §6, §7

Experiment [4] deals with T3, CISD2 Gene Product (NAF-1) (Homo sapiens, UniProt Q8N5K1).
T3 sequence (Q8N5K1 57-135 limits assumed): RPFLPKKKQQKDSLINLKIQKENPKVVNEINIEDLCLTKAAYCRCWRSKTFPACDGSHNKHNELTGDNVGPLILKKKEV
Described as above. In kind it is biochemical. The procedure: as §1, §2, §3, §4, §5, §6, §7

SMILES strings stand for the structures.

Compound `O=C(Nc1scc(-c2ccc(Cl)c(F)c2)c1C(=O)O)c1ccccc1` [Compound #2, 2-Benzamido-4-(4-chloro-3-fluoro-phenyl)thiophene-3-carboxylic acid] returned an IC50 in experiment [1] of 0.21 µM. In addition, the “Residual cluster bound at end of experiment (Percentage Absorbance 458 nm at time zero)” value in experiment [2] (at 180 minutes, 60 μM compound, vehicle control 16%) is given as 36% (16%); in experiment [3] (CISD3 gene product, at 180 minutes, 60 μM compound, vehicle control (DMSO) 11%), 52% (11%); in experiment [4] (at 500 minutes, 60 μM compound, vehicle control 3%) it was 18% (3%). For the same compound, the “Stabiliser of Fe—S cluster binding (time to 50% loss increased by more than 25% vs control)” value in experiment [2] (at the concentrations tested) was “stabilisers”; in experiment [3] (Miner2, at the concentrations tested), “Stabilisers”; in experiment [4] (at the concentrations tested) it was “Stabilisers”. The “Time (in minutes) to achieve 50% loss of bound cluster (Absorbance 458 nm)” value in experiment [2] (pH 6, 37° C., 20 μM protein, 60 μM compound, run time 180 minutes, vehicle control 80) is on record as “during 180 minutes”; in experiment [3] (Miner2, pH 6, 37° C., 20 μM protein, 60 μM compound, run time 180 minutes, vehicle control 60) it was “during 180 minutes”; in experiment [4] (pH 6, 37° C., 20 μM protein, 60 μM compound, run time 500 minutes, vehicle control 310), “during 500 minutes”.

A word on the IC50: it is the midpoint of a concentration-inhibition curve.
